In the NIST ThermoML archive (doi:10.1016/j.jct.2010.04.013):
± gives the expanded uncertainty stated by the source.

Assay: mn = molality of the nth substance listed, in mol/kg
Conditions: 101 kPa, Liquid; for mass density: Vibrating tube method; for speed of sound: Pulse-echo method

[Ba+2].[O-][Cl+3]([O-])([O-])[O-].[O-][Cl+3]([O-])([O-])[O-] [barium perchlorate] + CO
Conditions	mass density, 283.15 K [kg/m3]	mass density, 288.15 K [kg/m3]	mass density, 293.15 K [kg/m3]	mass density, 298.15 K [kg/m3]	mass density, 303.15 K [kg/m3]	mass density, 308.15 K [kg/m3]	mass density, 313.15 K [kg/m3]	speed of sound, 298.15 K [m/s]
m1 = 0.04405	811.658 ± 0.29	806.964 ± 0.29	802.257 ± 0.29	797.534 ± 0.29	792.793 ± 0.29	788.031 ± 0.29	783.24 ± 0.29	1104.8 ± 1.1
m1 = 0.05789	815.181 ± 0.29	810.483 ± 0.29	805.768 ± 0.29	801.038 ± 0.29	796.29 ± 0.29	791.514 ± 0.29	786.709 ± 0.29	1105.8 ± 1.1
m1 = 0.07152	818.62 ± 0.29	813.919 ± 0.29	809.196 ± 0.29	804.461 ± 0.29	799.707 ± 0.29	794.928 ± 0.29	790.115 ± 0.29	1106.8 ± 1.1
m1 = 0.08565	822.272 ± 0.29	817.565 ± 0.29	812.834 ± 0.29	808.092 ± 0.29	803.33 ± 0.29	798.541 ± 0.29	793.738 ± 0.29	–
m1 = 0.09942	825.796 ± 0.29	821.081 ± 0.29	816.346 ± 0.29	811.597 ± 0.29	806.83 ± 0.29	802.029 ± 0.29	797.22 ± 0.29	1108.7 ± 1.1
m1 = 0.1123	829.125 ± 0.29	824.405 ± 0.29	819.663 ± 0.29	814.91 ± 0.29	810.139 ± 0.29	805.341 ± 0.29	800.51 ± 0.29	1109.7 ± 1.2
m1 = 0.1401	836.397 ± 0.3	831.665 ± 0.3	826.908 ± 0.3	822.143 ± 0.3	817.357 ± 0.3	812.546 ± 0.3	807.7 ± 0.3	1111.7 ± 1.2
m1 = 0.1665	843.399 ± 0.3	838.652 ± 0.3	833.885 ± 0.3	829.105 ± 0.3	824.3 ± 0.3	819.488 ± 0.3	814.642 ± 0.3	1113.2 ± 1.2
m1 = 0.1922	850.26 ± 0.3	845.49 ± 0.3	840.721 ± 0.3	835.928 ± 0.3	831.119 ± 0.3	826.278 ± 0.3	821.422 ± 0.3	1115.2 ± 1.2
m1 = 0.2169	856.95 ± 0.3	852.176 ± 0.3	847.385 ± 0.3	842.583 ± 0.3	837.763 ± 0.3	832.919 ± 0.3	828.046 ± 0.3	1116.9 ± 1.2
m1 = 0.2417	863.79 ± 0.3	859.009 ± 0.3	854.206 ± 0.3	849.387 ± 0.3	844.546 ± 0.3	839.692 ± 0.3	834.813 ± 0.3	1118.6 ± 1.2

[Ca+2].[O-][Cl+3]([O-])([O-])[O-].[O-][Cl+3]([O-])([O-])[O-] [calcium diperchlorate] + CO
Conditions	mass density, 283.15 K [kg/m3]	mass density, 288.15 K [kg/m3]	mass density, 293.15 K [kg/m3]	mass density, 298.15 K [kg/m3]	mass density, 303.15 K [kg/m3]	mass density, 308.15 K [kg/m3]	mass density, 313.15 K [kg/m3]	speed of sound, 298.15 K [m/s]
m1 = 0.04342	808.441 ± 0.23	803.768 ± 0.23	799.077 ± 0.23	794.369 ± 0.23	789.647 ± 0.23	784.898 ± 0.23	780.124 ± 0.23	1107.2 ± 1.2
m1 = 0.05807	811.094 ± 0.23	806.419 ± 0.23	801.722 ± 0.23	797.014 ± 0.23	792.292 ± 0.23	787.544 ± 0.23	782.768 ± 0.23	–
m1 = 0.07009	813.264 ± 0.23	808.591 ± 0.23	803.899 ± 0.23	799.189 ± 0.23	794.463 ± 0.23	789.714 ± 0.23	784.937 ± 0.23	1110.9 ± 1.2
m1 = 0.08408	815.804 ± 0.23	811.129 ± 0.23	806.432 ± 0.23	801.724 ± 0.23	796.994 ± 0.23	792.241 ± 0.23	787.454 ± 0.23	1112.6 ± 1.2
m1 = 0.09795	818.319 ± 0.23	813.643 ± 0.23	808.941 ± 0.23	804.234 ± 0.23	799.508 ± 0.23	794.756 ± 0.23	789.975 ± 0.23	1114.4 ± 1.2
m1 = 0.1113	820.755 ± 0.23	816.078 ± 0.23	811.379 ± 0.23	806.668 ± 0.23	801.938 ± 0.23	797.181 ± 0.23	792.393 ± 0.23	1116.1 ± 1.2
m1 = 0.1396	825.906 ± 0.23	821.224 ± 0.23	816.525 ± 0.23	811.81 ± 0.23	807.078 ± 0.23	802.323 ± 0.23	797.541 ± 0.23	1119.6 ± 1.2
m1 = 0.1663	830.829 ± 0.23	826.145 ± 0.23	821.443 ± 0.23	816.722 ± 0.23	811.986 ± 0.23	807.224 ± 0.23	802.43 ± 0.23	1123 ± 1.2
m1 = 0.1921	835.646 ± 0.23	830.963 ± 0.23	826.254 ± 0.23	821.535 ± 0.23	816.796 ± 0.23	812.035 ± 0.23	807.248 ± 0.23	1126.7 ± 1.2
m1 = 0.2177	840.443 ± 0.23	835.754 ± 0.23	831.044 ± 0.23	826.321 ± 0.23	821.577 ± 0.23	816.812 ± 0.23	812.023 ± 0.23	1129.5 ± 1.2
m1 = 0.2427	845.09 ± 0.23	840.401 ± 0.23	835.687 ± 0.23	830.964 ± 0.23	826.212 ± 0.23	821.445 ± 0.23	816.651 ± 0.23	1132.9 ± 1.2
m1 = 0.269	850.052 ± 0.23	845.358 ± 0.23	840.641 ± 0.23	835.911 ± 0.23	831.162 ± 0.23	826.391 ± 0.23	821.596 ± 0.23	1136.3 ± 1.2

CO [methanol] + [Ba+2].[O-][Cl+3]([O-])([O-])[O-].[O-][Cl+3]([O-])([O-])[O-]
m2 = 0
Conditions	mass density [kg/m3]
283.15 K	800.555 ± 0.29
288.15 K	795.877 ± 0.29
293.15 K	791.18 ± 0.29
298.15 K	786.468 ± 0.29
303.15 K	781.739 ± 0.29
308.15 K	776.993 ± 0.29
313.15 K	772.219 ± 0.29

CO [methanol] + O=S(=O)([O-])C(F)(F)F.O=S(=O)([O-])C(F)(F)F.[Be+2]
m2 = 0
Conditions	mass density [kg/m3]
283.15 K	800.552 ± 0.22
288.15 K	795.874 ± 0.22
293.15 K	791.179 ± 0.23
298.15 K	786.469 ± 0.23
303.15 K	781.742 ± 0.23
308.15 K	776.993 ± 0.23
313.15 K	772.216 ± 0.23

C[S+](C)[O-] [dimethyl sulfoxide] + [Ca+2].[O-][Cl+3]([O-])([O-])[O-].[O-][Cl+3]([O-])([O-])[O-]
m2 = 0
Conditions	mass density [kg/m3]
293.15 K	1100.21 ± 0.23
298.15 K	1095.18 ± 0.23
303.15 K	1090.16 ± 0.23
313.15 K	1080.12 ± 0.23
323.15 K	1070.08 ± 0.23
333.15 K	1060.02 ± 0.23

[O-][Cl+3]([O-])([O-])[O-].[O-][Cl+3]([O-])([O-])[O-].[Sr+2] [strontium perchlorate] + C[S+](C)[O-]
Conditions	mass density, 293.15 K [kg/m3]	mass density, 298.15 K [kg/m3]	mass density, 303.15 K [kg/m3]	mass density, 313.15 K [kg/m3]	mass density, 323.15 K [kg/m3]	mass density, 333.15 K [kg/m3]	speed of sound, 298.15 K [m/s]
m1 = 0.02541	1105.84 ± 0.27	1100.82 ± 0.27	1095.81 ± 0.27	1085.8 ± 0.27	1075.79 ± 0.27	1065.77 ± 0.27	–
m1 = 0.03174	1107.23 ± 0.27	1102.22 ± 0.27	1097.22 ± 0.27	1087.21 ± 0.27	1077.21 ± 0.27	1067.2 ± 0.27	1485.7 ± 1.3
m1 = 0.04183	1109.48 ± 0.28	1104.48 ± 0.28	1099.47 ± 0.28	1089.48 ± 0.27	1079.49 ± 0.27	1069.48 ± 0.27	1486.1 ± 1.3
m1 = 0.05362	1112.12 ± 0.28	1107.12 ± 0.28	1102.12 ± 0.28	1092.14 ± 0.28	1082.16 ± 0.27	1072.17 ± 0.27	1486.7 ± 1.3
m1 = 0.06535	1114.75 ± 0.28	1109.75 ± 0.28	1104.76 ± 0.28	1094.79 ± 0.28	1084.82 ± 0.28	1074.85 ± 0.28	1487.3 ± 1.3
m1 = 0.08369	1118.88 ± 0.28	1113.89 ± 0.28	1108.92 ± 0.28	1098.96 ± 0.28	1089.01 ± 0.28	1079.07 ± 0.28	1488.2 ± 1.3
m1 = 0.1061	1123.96 ± 0.29	1118.98 ± 0.29	1114.01 ± 0.28	1104.08 ± 0.28	1094.14 ± 0.28	1084.22 ± 0.28	1489.3 ± 1.3
m1 = 0.1303	1129.53 ± 0.29	1124.56 ± 0.29	1119.6 ± 0.29	1109.69 ± 0.29	1099.79 ± 0.29	1089.89 ± 0.28	1490.4 ± 1.3
m1 = 0.1512	1134.32 ± 0.29	1129.36 ± 0.29	1124.42 ± 0.29	1114.52 ± 0.29	1104.65 ± 0.29	1094.78 ± 0.29	1491.5 ± 1.3
m1 = 0.1771	1140.37 ± 0.3	1135.43 ± 0.3	1130.49 ± 0.3	1120.62 ± 0.3	1110.77 ± 0.29	1100.92 ± 0.29	1492.6 ± 1.4
m1 = 0.1981	1145.33 ± 0.3	1140.39 ± 0.3	1135.46 ± 0.3	1125.62 ± 0.3	1115.78 ± 0.3	1105.96 ± 0.3	1493.7 ± 1.4
